Key:
Assay type in all cases: cell-based
QRFPR = molecular target: T1, QRFPR (Homo sapiens, UniProt Q96P65); assay: IP accumulation assay, endogenous Gαq coupling, QRFPR; conditions: transiently transfected HEK293 cells, mean of at least three independent experiments
T1 construct: expressed in transfected cells; host or cells: HEK293, transient
T1 sequence (Q96P65 1-431): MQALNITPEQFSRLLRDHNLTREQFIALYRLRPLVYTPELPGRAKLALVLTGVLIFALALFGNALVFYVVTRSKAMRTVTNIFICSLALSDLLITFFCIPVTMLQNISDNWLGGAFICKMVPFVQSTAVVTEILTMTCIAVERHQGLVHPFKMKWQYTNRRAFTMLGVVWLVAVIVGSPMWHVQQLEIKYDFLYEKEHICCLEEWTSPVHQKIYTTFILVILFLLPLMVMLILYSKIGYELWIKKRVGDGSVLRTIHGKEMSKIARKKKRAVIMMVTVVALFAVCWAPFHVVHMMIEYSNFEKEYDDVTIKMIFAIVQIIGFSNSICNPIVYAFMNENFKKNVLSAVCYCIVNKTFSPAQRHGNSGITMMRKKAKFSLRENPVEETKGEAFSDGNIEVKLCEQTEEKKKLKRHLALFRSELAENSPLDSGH
Protocol: (§1) For measuring IP accumulation, HEK293 cells grown to 70–80% confluency in 6-well plates were transiently co-transfected using Metafectene Pro (2.5 μl/μg DNA; Biontex) with plasmids containing receptor and/or mock (empty pcDNA3.1) (for endogenous Gq-coupling) using 4 μg total DNA in a ratio of 3:1 following the manufacturer’s instructions. For testing Gα16- and GαΔ6qi4myr-coupling, plasmids encoding the corresponding Gα protein were co-transfected instead of mock. Gα16 is naturally promiscuous and stimulates the phospholipase C (PLC) pathway leading to IP production, while the exchange of the C-terminal four amino acids of Gαq for the corresponding residues of Gαi1 in the chimeric GαΔ6qi4myr confers the ability to couple to Gi/o protein-preferring receptors but still stimulate PLC, thus specifically redirecting downstream cellular signaling. 16 h post transfection, the cells were seeded into white 384-well plates at a density of 20,000 cells/well. Media was removed 24 h later and the cells were incubated with the indicated concentration of peptides for 1 h in HBSS + 20 mM LiCl. IP accumulation was measured with the HTRF-based IP-One Gq kit (Cisbio) on a microplate reader (Tecan Spark).
(§2) For in vitro activation, data is presented as mean ± SEM of at least three independent experiments conducted in technical triplicate. […] For the C. elegans NPRs, we considered the strongest response elicited by any of the peptides downstream of a particular receptor as the receptor’s maximal signal. This may or may not be the biological maximum that can be reached by the ‘true’ endogenous agonist. For the human receptors, the response to the established endogenous agonist reflected the maximal signal.

Y1R = molecular target: T2, Y1R (Homo sapiens, UniProt P25929); assay: IP accumulation assay, chimeric GαΔ6qi4myr, Y1R; conditions: chimeric GαΔ6qi4myr co-transfected, transiently transfected HEK293 cells, mean of at least three independent experiments
T2 construct: expressed in transfected cells; host or cells: HEK293, transient
T2 sequence (P25929 1-384): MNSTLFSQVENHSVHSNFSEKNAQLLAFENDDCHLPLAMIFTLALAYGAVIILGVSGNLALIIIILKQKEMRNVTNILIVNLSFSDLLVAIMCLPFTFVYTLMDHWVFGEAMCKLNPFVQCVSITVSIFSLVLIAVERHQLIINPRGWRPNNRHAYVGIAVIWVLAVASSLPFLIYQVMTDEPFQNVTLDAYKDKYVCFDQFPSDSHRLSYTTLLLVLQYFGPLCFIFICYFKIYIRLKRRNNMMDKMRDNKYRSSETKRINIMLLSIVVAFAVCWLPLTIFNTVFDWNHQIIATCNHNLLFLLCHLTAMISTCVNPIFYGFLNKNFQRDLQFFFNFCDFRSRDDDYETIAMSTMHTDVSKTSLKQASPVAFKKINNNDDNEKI
Protocol: as §1, §2

Y5R = molecular target: T3, Y5R (Homo sapiens, UniProt Q15761); assay: IP accumulation assay, chimeric GαΔ6qi4myr, Y5R; conditions: chimeric GαΔ6qi4myr co-transfected, transiently transfected HEK293 cells, mean of at least three independent experiments
T3 construct: expressed in transfected cells; host or cells: HEK293, transient
T3 sequence (Q15761 1-445): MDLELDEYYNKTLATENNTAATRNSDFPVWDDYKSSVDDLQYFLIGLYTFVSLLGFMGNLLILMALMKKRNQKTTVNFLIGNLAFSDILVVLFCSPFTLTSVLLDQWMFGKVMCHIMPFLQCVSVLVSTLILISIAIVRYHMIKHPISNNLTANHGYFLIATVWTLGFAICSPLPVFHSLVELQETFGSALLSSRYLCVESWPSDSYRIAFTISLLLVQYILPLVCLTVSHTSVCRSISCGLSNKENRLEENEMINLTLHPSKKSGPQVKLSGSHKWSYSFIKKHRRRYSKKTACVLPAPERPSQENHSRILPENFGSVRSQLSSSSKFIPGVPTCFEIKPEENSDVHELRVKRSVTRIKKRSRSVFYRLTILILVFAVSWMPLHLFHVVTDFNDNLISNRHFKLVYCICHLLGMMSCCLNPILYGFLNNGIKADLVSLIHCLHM
Protocol: as §1, §2

NPFF2R = molecular target: T4, NPFF2R (Homo sapiens, UniProt Q9Y5X5); assay: IP accumulation assay, chimeric GαΔ6qi4myr, NPFF2R; conditions: chimeric GαΔ6qi4myr co-transfected, transiently transfected HEK293 cells, mean of at least three independent experiments
T4 construct: expressed in transfected cells; host or cells: HEK293, transient
T4 sequence (Q9Y5X5 103-522): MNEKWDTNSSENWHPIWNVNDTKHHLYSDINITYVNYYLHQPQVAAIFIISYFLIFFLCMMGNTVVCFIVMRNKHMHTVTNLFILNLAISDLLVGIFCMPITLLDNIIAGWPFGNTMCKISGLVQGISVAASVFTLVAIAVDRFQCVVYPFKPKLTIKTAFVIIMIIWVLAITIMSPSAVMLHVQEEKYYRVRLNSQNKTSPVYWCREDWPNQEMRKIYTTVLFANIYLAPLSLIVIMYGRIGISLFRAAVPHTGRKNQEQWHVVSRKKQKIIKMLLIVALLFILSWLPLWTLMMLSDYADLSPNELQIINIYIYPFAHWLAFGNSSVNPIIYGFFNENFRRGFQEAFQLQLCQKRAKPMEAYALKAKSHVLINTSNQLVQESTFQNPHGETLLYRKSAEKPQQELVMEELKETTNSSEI
Protocol: as §1, §2

NPFF1R = molecular target: T5, NPFF1R (Homo sapiens, UniProt Q9GZQ6); assay: IP accumulation assay, chimeric GαΔ6qi4myr, NPFF1R; conditions: chimeric GαΔ6qi4myr co-transfected, transiently transfected HEK293 cells, mean of at least three independent experiments
T5 construct: expressed in transfected cells; host or cells: HEK293, transient
T5 sequence (Q9GZQ6 whole entry): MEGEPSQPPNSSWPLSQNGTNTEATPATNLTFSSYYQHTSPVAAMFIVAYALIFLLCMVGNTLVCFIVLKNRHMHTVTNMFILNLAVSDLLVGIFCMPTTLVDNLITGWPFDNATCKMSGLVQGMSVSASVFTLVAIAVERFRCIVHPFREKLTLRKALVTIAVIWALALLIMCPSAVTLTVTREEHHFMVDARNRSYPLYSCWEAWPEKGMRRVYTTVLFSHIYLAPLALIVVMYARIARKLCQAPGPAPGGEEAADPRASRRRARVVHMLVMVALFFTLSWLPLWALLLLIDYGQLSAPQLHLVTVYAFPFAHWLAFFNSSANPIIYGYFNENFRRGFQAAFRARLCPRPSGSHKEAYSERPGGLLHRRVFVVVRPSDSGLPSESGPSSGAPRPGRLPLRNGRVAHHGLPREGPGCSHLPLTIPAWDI
Protocol: as §1, §2

## TSGPLGNLAEELNGYSRKKGGFSFRF-NH2 [QRFP26, human pyroglutamylated RFamide peptide, 26 residues, reference compound]
QRFPR; 0.1 µM peptide
  IP accumulation, x-fold of basal (mean), QRFPR#: 22.77 x-fold of basal
QRFPR; 10 µM peptide
  IP accumulation, x-fold of basal (mean), QRFPR#: 24.26 x-fold of basal
Y1R; 0.1 µM peptide
  IP accumulation, x-fold of basal (mean), Y1R: 1.32 x-fold of basal
Y1R; 10 µM peptide
  IP accumulation, x-fold of basal (mean), Y1R: 2.75 x-fold of basal
Y5R; 0.1 µM peptide
  IP accumulation, x-fold of basal (mean), Y5R: 0.87 x-fold of basal
Y5R; 10 µM peptide
  IP accumulation, x-fold of basal (mean), Y5R: 3.57 x-fold of basal
NPFF2R; 0.1 µM peptide
  IP accumulation, x-fold of basal (mean), NPFF2R: 1.85 x-fold of basal
NPFF2R; 10 µM peptide
  IP accumulation, x-fold of basal (mean), NPFF2R: 2.58 x-fold of basal
NPFF1R; 0.1 µM peptide
  IP accumulation, x-fold of basal (mean), NPFF1R: 1.04 x-fold of basal
NPFF1R; 10 µM peptide
  IP accumulation, x-fold of basal (mean), NPFF1R: 2.56 x-fold of basal

Reference: paper PMC6751662, “Pharmacological and functional similarities of the human neuropeptide Y system in C. elegans challenges phylogenetic views on the FLP/NPR system” (Cell Communication and Signaling : CCS, 2019)
